From PubChem BioAssay (NCI)
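Growth conditions: 96-well plates. Treatment: test compound, 48 hours, 5 concentrations. Analysis: linear interpolation between bracketing concentrations; unreached endpoints set to highest concentration. GI50: concentration for 50% inhibition of growth. TGI: total growth inhibition.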

Tests used:
Test in all cases: NCI tumour cell line growth inhibition, 48 h
[1] = tested on: XF 498 CNS
[2] = tested on: OVCAR-4 ovarian
[3] = tested on: P388 leukemia
[4] = tested on: OVCAR-5 ovarian
[5] = tested on: HCC-2998 colon
[6] = tested on: SK-MEL-5 melanoma
[7] = tested on: DMS 114 small cell lung
[8] = tested on: IGROV1 ovarian
[9] = tested on: SNB-78 CNS
[10] = tested on: HS 578T breast
[11] = tested on: SR leukemia
[12] = tested on: BT-549 breast
[13] = tested on: MDA-N

SMILES	TGI [1]	TGI [2]	TGI [3]	TGI [4]	TGI [5]	TGI [6]	TGI [7]	TGI [8]	TGI [9]	TGI [10]	TGI [11]	TGI [12]	TGI [13]	GI50 [12]	GI50 [10]	GI50 [11]	GI50 [6]	GI50 [8]	GI50 [4]	GI50 [5]
CC(C)(C)OC(=O)NC1CCC(C(C)(C)C)CC1 (configuration not stated)	> 96.5 µM	> 100 µM	48.5 µM	> 100 µM	> 100 µM	> 72.4 µM	> 100 µM	> 100 µM	> 100 µM	–	–	–	–	–	–	–	–	–	–	–
CC(C)(C)c1ccc(/C=N/NC(=O)CSCC(=O)N/N=C/c2ccc(C(C)(C)C)cc2)cc1	–	> 100 µM	–	12.5 µM	4.8 µM	4.3 µM	–	10.4 µM	–	7.61 µM	3.76 µM	–	–	–	–	–	–	–	–	–
Nc1nc(Nc2ccccc2)sc1C(=O)c1cccs1	–	40.6 µM	–	32.1 µM	32.6 µM	15.9 µM	–	36.3 µM	–	43.3 µM	11.2 µM	35.7 µM	46.4 µM	–	–	–	–	–	–	–
O=C(Nc1ccc(Cl)c(Cl)c1)N1N=C2c3ccccc3CCC2C1c1ccc(Cl)cc1 (configuration not stated)	–	> 100 µM	–	> 100 µM	> 100 µM	> 100 µM	–	> 100 µM	–	> 100 µM	> 100 µM	> 100 µM	> 100 µM	–	–	–	–	–	–	–
C=CCSSCC=C	–	> 100 µM	–	> 100 µM	> 100 µM	> 100 µM	–	> 100 µM	–	97.4 µM	50.2 µM	> 81.5 µM	> 80.2 µM	–	–	–	–	–	–	–
O[C@@H]1C[C@H]2N3CC[C@@]2(c2cc4c(cc2C3)OCO4)[C@H]2O[C@@H]12	–	> 100 µM	–	> 100 µM	> 100 µM	–	–	> 100 µM	–	> 100 µM	–	> 100 µM	> 100 µM	–	–	–	–	–	–	–
C[C@]12CC[C@H](O)CC1=CC[C@@H]1[C@@H]2CC[C@]2(C)C(=N/O)/C(=C/c3ccc([N+](=O)[O-])cc3)C[C@@H]12	–	> 100 µM	–	21.5 µM	23 µM	3.32 µM	–	26.7 µM	–	63.5 µM	22.5 µM	26.3 µM	28.4 µM	–	–	–	–	–	–	–
Cn1c2c3ccc(Cl)cc3nc-2c(Cl)c2ccccc21	–	35.5 µM	–	38.6 µM	20.5 µM	42.7 µM	–	42 µM	–	> 100 µM	> 100 µM	50.1 µM	46.2 µM	–	–	–	–	–	–	–
Cc1cc(C)nc(SCCc2cccc[n+]2C)n1	–	> 100 µM	–	> 100 µM	> 100 µM	> 100 µM	–	> 100 µM	–	> 100 µM	–	> 100 µM	> 100 µM	–	–	–	–	–	–	–
Clc1ccc(-c2ccc(-c3nn4c(CNc5ccccc5)nnc4s3)o2)c(Cl)c1	–	> 100 µM	–	> 100 µM	–	> 100 µM	–	> 100 µM	–	> 100 µM	> 100 µM	> 100 µM	> 100 µM	–	–	–	–	–	–	–
SC1CCCN(Cc2ccccc2)C1 (configuration not stated)	–	> 100 µM	–	> 100 µM	31.4 µM	35.4 µM	–	> 100 µM	–	> 100 µM	71.5 µM	> 100 µM	> 100 µM	–	–	–	–	–	–	–
COc1cc(S(=O)(=O)Nc2nc(-c3ccc(N4C(=O)/C(=C/c5ccccc5[N+](=O)[O-])N=C4c4ccccc4)cc3)cs2)ccc1Cl	–	> 100 µM	–	> 100 µM	–	> 100 µM	–	> 100 µM	–	–	> 100 µM	74.7 µM	> 100 µM	–	–	–	–	–	–	–
O=C(Oc1ccc(Cl)cc1[N+](=O)[O-])c1ccccc1	> 100 µM	> 100 µM	–	> 100 µM	> 100 µM	36.7 µM	> 100 µM	> 100 µM	> 100 µM	–	> 100 µM	–	–	–	–	–	–	–	–	–
CC(=O)OCCOc1cc2c([nH]c3ccccc32)c(C)c2cccc1-2	–	4 µM	–	9.11 µM	–	9.79 µM	–	4.84 µM	–	> 100 µM	> 33.3 µM	8.22 µM	11 µM	–	–	–	–	–	–	–
O=C1CCCC2C3CC(CN12)C1CCCCN1C3 (configuration not stated)	–	> 100 µM	–	> 100 µM	> 100 µM	> 100 µM	–	> 100 µM	–	> 100 µM	> 100 µM	> 100 µM	> 100 µM	–	–	–	–	–	–	–
COC(=O)Nc1nc2ccc(NC(=O)c3cccs3)cc2[nH]1	–	> 100 µM	–	> 100 µM	–	82.5 µM	–	14.4 µM	–	44.7 µM	–	> 100 µM	36.7 µM	–	–	–	–	–	–	–
O=C1C(Cl)C(c2cc3cc(Br)ccc3nc2Cl)N1c1ccc(Cl)cc1 (configuration not stated)	–	9.4 µM	–	> 25 µM	8.04 µM	6.38 µM	–	7.17 µM	–	> 25 µM	7.46 µM	11.6 µM	15.9 µM	–	–	–	–	–	–	–
CCCC(=O)O.CCCC(=O)O.CCCC(=O)O.CCCC(=O)O.[Rh].[Rh]	–	–	–	–	–	0.248 µM	–	0.73 µM	–	13 µM	1.06 µM	0.101 µM	–	0.0314 µM	0.157 µM	0.0586 µM	0.107 µM	0.189 µM	–	–
c1ccc(C[N+]23CN4CN(CN(C4)C2)C3)cc1	–	> 100 µM	–	> 100 µM	39.9 µM	50 µM	–	> 100 µM	–	> 100 µM	–	> 100 µM	> 100 µM	–	–	–	–	–	–	–
O=C(COc1ccc(Cl)c(Cl)c1)N(Cc1ccccc1)Cc1ccc[n+](Cc2ccc(Cl)cc2S(=O)(=O)F)c1	–	> 100 µM	–	> 100 µM	–	64.7 µM	–	> 100 µM	–	> 100 µM	52.4 µM	–	–	–	–	–	–	–	–	–
CN1CC(CNC(=O)OCc2ccccc2)CC2c3cccc4c3c(cn4C)CC21 (configuration not stated)	–	–	–	4.91 µM	3.19 µM	2.86 µM	–	4.49 µM	–	6.96 µM	–	4.62 µM	–	2.07 µM	1.99 µM	–	1.49 µM	1.77 µM	1.98 µM	1.67 µM
C=CCNS(=O)(=O)c1ncnc2nc[nH]c12	–	> 100 µM	–	> 100 µM	–	> 100 µM	–	> 100 µM	–	> 100 µM	> 100 µM	> 100 µM	> 100 µM	–	–	–	–	–	–	–
COc1c(OC/C=C(\C)CCC=C(C)C)ccc2ccc(=O)oc12	–	> 100 µM	–	> 100 µM	> 100 µM	> 100 µM	–	> 100 µM	–	> 100 µM	> 100 µM	> 100 µM	> 100 µM	–	–	–	–	–	–	–
O=C(c1cc2c(c3ccccc13)NCCN=C2C(F)(F)F)C(F)(F)F	–	> 100 µM	–	> 100 µM	33 µM	31 µM	–	> 100 µM	–	40.6 µM	21.3 µM	–	> 100 µM	–	–	–	–	–	–	–
O=C1OC2CC=CC1C2 (configuration not stated)	> 100 µM	> 100 µM	> 100 µM	> 100 µM	> 100 µM	> 100 µM	> 100 µM	> 100 µM	> 100 µM	–	–	–	–	–	–	–	–	–	–	–
CC(=O)NNC(=O)C1CCCCN1 (configuration not stated)	–	> 100 µM	–	> 100 µM	–	> 100 µM	–	> 100 µM	–	> 100 µM	> 100 µM	> 100 µM	> 100 µM	–	–	–	–	–	–	–
C=C1C(=O)OC2CC1CCC1(C)OC1CCC(C)=CCCC2(C)O (configuration not stated)	8.47 µM	11.9 µM	3.06 µM	19.1 µM	15.2 µM	10.2 µM	9.27 µM	15.8 µM	26.3 µM	–	–	–	–	–	–	–	–	–	–	–
CC[C@]12C=CCN3CC[C@@]4(c5cc(Br)c(OC)cc5N(C)[C@H]4[C@@](O)(C(=O)N[C@@H](Cc4ccc(O)cc4)C(=O)OC)[C@@H]1O)[C@@H]32	–	40 µM	–	> 100 µM	94.6 µM	31.4 µM	–	73.3 µM	–	54.2 µM	46.4 µM	41.4 µM	49.1 µM	–	–	–	–	–	–	–
O=C(/C=C/c1ccccc1)N1CCCCC1	–	> 100 µM	–	> 100 µM	> 100 µM	> 100 µM	–	> 100 µM	–	> 100 µM	> 100 µM	> 100 µM	> 100 µM	–	–	–	–	–	–	–
